Reference: US20230331803A1, “CO-AGONISTS OF THE GLP-1 AND AMYLIN RECEPTORS” (priority 2020, published 2023)
Entries after “also recorded” stand apart in the source; their conditions may differ. Like-named read-outs stand apart in the source and are kept apart here. Starred links: 1 amine or outer side, 2 acyl side, 3 side chain; linkers in the order of their positions; H or OH if unused. Non-standard residues stand in square brackets, D forms with d. Groups on a side chain read outwards from the residue. *: point of attachment. Butyryl(4-SO2NHCO(CH2)16Tz) = O=C(CCCCCCCCCCCCCCCCc1nnn[nH]1)NS(=O)(=O)CCCC(=O)*; C20 diacid = O=C(O)CCCCCCCCCCCCCCCCCCC(=O)*; C18 diacid = O=C(O)CCCCCCCCCCCCCCCCC(=O)*; γGlu = O=C(O)[C@H](CCC(=O)[*:2])N[*:1]; Trx = NC[C@H]1CC[C@H](C(=O)O)CC1; AEEA = NCCOCCOCC(=O)O; Aib = CC(C)(N)C(=O)O

What was measured:
human GLP-1 receptor = biological target: T1, human GLP-1 receptor (Homo sapiens, UniProt P43220); experiment: Human GLP-1 receptor in vitro potency assay (CRE-luciferase reporter, BHK cells); type: cell-based
T1 construct: expressed in transfected cells; host or cells: BHK (Baby Hamster Kidney) cells, clone BHK 467-12A KZ-10, stably transfected, with CRE-luciferase reporter
T1 sequence (P43220 24-463): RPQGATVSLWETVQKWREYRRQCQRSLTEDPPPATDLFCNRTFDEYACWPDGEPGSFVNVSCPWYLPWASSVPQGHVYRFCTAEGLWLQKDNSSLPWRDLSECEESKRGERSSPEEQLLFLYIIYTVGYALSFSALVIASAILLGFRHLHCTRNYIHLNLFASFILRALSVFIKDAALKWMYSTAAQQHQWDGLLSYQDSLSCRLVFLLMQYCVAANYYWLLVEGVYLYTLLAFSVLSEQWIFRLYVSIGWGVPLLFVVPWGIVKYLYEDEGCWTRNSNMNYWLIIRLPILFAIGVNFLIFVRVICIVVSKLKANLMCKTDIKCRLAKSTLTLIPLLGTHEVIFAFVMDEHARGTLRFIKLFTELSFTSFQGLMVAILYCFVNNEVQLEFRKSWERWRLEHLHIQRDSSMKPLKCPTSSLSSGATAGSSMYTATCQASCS
Method: It is thus possible to measure GLP-1 receptor activity using a CRE-luciferase reporter gene introduced into Baby Hamster Kidney (BHK) cells co-expressing the GLP-1 receptor.
Cells were aliquoted and stored at -180° C. until use.
Plates were sealed and incubated at room temperature with gentle shaking for 30 minutes while protected from light. Luminescence was detected on a luminescence plate reader e.g. a Synergy 2 (BioTek).

[1] = biological target: T2, human amylin receptor (hAmyR3) (Homo sapiens, UniProt O60896+P30988); experiment: Human amylin receptor in vitro potency assay (CRE-luciferase reporter, BHK cells); type: cell-based; conditions: for EC50: read-out: Human AmyR3 potency [EC50 (pM)]; for Ability to agonise the amylin receptor, in words: Tables 4a-4c;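 on all read-outs here: BHK cells expressing human calcitonin receptor plus RAMP3 (amylin-3 receptor) with a CRE-luciferase reporter, agonist activity read as luminescence from cAMP-driven transcription, 7-point serial dilutions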
T2 construct: host or cells: BHK cells (Hollex-1 line: human calcitonin receptor (a) + CRE-Luc), further transfected with human RAMP3
T2 sequence (P30988 25-474): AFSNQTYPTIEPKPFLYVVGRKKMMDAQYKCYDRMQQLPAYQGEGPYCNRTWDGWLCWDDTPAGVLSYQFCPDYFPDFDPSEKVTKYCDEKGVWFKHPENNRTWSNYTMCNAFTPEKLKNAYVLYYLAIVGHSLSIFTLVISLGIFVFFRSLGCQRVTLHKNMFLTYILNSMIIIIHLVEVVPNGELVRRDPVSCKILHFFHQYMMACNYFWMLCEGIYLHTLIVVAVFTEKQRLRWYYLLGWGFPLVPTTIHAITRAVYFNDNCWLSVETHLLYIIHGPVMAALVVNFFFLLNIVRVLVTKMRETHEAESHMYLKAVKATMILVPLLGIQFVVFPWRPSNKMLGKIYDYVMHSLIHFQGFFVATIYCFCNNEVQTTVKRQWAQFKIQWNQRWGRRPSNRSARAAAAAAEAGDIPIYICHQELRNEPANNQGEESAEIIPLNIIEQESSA
T2 sequence (O60896 24-148): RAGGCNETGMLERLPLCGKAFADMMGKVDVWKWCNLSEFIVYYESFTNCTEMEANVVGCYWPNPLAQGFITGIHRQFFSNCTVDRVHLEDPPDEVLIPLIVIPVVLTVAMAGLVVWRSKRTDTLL

Sprague Dawley (SD) rats = experiment: Acute food intake in ad libitum fed rats after a single subcutaneous administration; type: in vivo, rat; conditions: for Food intake relative to vehicle (%) 0-24 hr, 10 nmol/kg / Food intake relative to vehicle (%) 24-48 hr, 10 nmol/kg: rat, single administration; for Inhibition of food intake, in words: rats, 10 nmol/kg;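 on all read-outs here: food intake monitored in the HM2 system, three rats per cage kept on a reversed light cycle, with food and water freely available after the subcutaneous dose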
Description: Sprague Dawley (SD) rats from Taconic Europe, Denmark were used for the acute food intake experiments, wherein the principles of laboratory animal care were followed.
The rats arrived at least 10-14 days before the start of the experiment to allow acclimatisation to experimental settings. During this period, the animals were handled at least 2 times. Immediately upon arrival, rats were put on a reversed light cycle (dark from 11am - 11pm) and put in the HM2 system and ID chipped. Three rats were housed in each cage. […] The rats were dosed once according to body weight with a 0.01-3 mg/kg solution administered subcutaneously (sc). The time of dosing was recorded for each group.
After dosing, the rats were returned to their home cages, where they had access to food and water. […] At the end of the experimental session, the animals were euthanised.

[2] = Pharmacokinetic studies in Beagle dogs after oral administration of SNAC-based tablets; type: in vivo; conditions: dog, in vivo, po; for Tmax / half-life: male, Beagle; for Tmax: Tmax (hr); for half-life: T½ (hr)
Method: To be able to evaluate oral exposure following tablet dosing, tablet compositions comprising the test substance and SNAC (sodium N-(8-(2-hydroxybenzoyl)amino)caprylate) were prepared by mixing test substance with roller compacted SNAC and magnesium stearate as, e.g., described in WO 2019/149880. The amount of SNAC in the tablet composition was 100-300 mg, the amount of magnesium stearate in the tablet composition was 7.7 mg, and the target amount of each test substance in the tablet composition was 3-4 mg.
Pharmacokinetic (PK) studies in Beagle dogs were conducted to determine the exposure of the GLP-1 receptor-amylin receptor co-agonist after peroral administration.
For the pharmacokinetic studies male Beagle dogs were used, 2-7, or 1 to 5, years of age and weighing approximately 10-15, such as 10-12, kg at the start of the studies. The dogs were group housed in pens (12 hours light: 12 hours dark),and fed individually and restrictedly once daily with Royal Canin Medium Adult dog (Royal Canin Products, China Branch, or Brogaarden A/S, Denmark). Exercise and group social were permitted daily, whenever possible. The dogs were used for repeated pharmacokinetic studies with a suitable wash-out period between successive dosing. An appropriate acclimatisation period was given prior to initiation of the first pharmacokinetic study. All handling, dosing and blood sampling of the animals were performed by trained and skilled staff. Before the studies the dogs were fasted overnight and from 0 to 4 h after dosing. Besides, the dogs were restricted to water 1 hour before dosing until 4 hours after dosing, but otherwise have ad libitum access to water during the whole period.
The tablets used for the p.o. studies described herein were immediate release SNAC-based tablets dosed orally.
The tablets were administered in the following manner: 10 min prior to tablet administration the dogs may be dosed subcutaneously with approximately 3 nmol/kg of SEQ ID NO: 237, tablets were placed in the back of the mouth of the dog to prevent chewing. The mouth was then closed, and 10 mL of tap water was given by a syringe or gavage to facilitate swallowing of the tablet.
Blood was sampled at predefined time points for up till 240 hours, such as up till 10 hr, post dosing to adequately cover the full plasma concentration-time absorption profile of the GLP-1 agonist.
For each blood sampling time point approximately 0.8 mL of whole blood was collected in a 1.5 mL EDTA coated tube, and the tube was gently turned to allowing mixing of the sample with the EDTA. Blood samples (for example 0.8 mL) were collected in EDTA buffer (8 mM) and then centrifuged at 4° C. and 2000 G for 10 minutes. Plasma was pipetted into Micronic tubes on dry ice, and kept at -20° C. until analysis.
Blood samples were taken as appropriate, for example from a venflon in the cephalic vein in the front leg for the first 2 hours and then with syringe from the jugular vein for the rest of the time points (the first few drops were allowed to drain from the venflon to avoid heparin saline from the venflon in the sample).
Plasma concentration of the GLP-1 receptor-amylin receptor co-agonists were determined using LCMS. Individual plasma concentration-time profiles were analysed by a non-compartmental model in WinNonlin v. 5.0 or Phoenix v. 6.2 or 6.3 (Pharsight Inc., Mountain View, CA, USA), or other relevant software for PK analysis.
The individual plasma concentration-time profiles were analysed by non-compartmental analysis (NCA).

[3] = Table 4a, BHK cells expressing human GLP-1R, CRE-Luc, 3 hours, read-out: Human GLP-1R potency [EC50 (pM)]
[4] = Table 4a, BHK hAmyR3/CRE-Luc cells, 3 hours
[5] = Table 4c, further comparator compounds

EC50 (human GLP-1 receptor; [3]) [pM] | EC50 [1, 4] [pM] | AUC/D [2] [kg·h/L] | Cmax/D [2] [kg/L] | Tmax [2] [h] | half-life [2] [h] | EC50 [1, 5] [pM] | EC50 (human GLP-1 receptor; [5]) [pM] | Substance | Food intake relative to vehicle (%) 0-24 hr, 10 nmol/kg (Sprague Dawley (SD) rats; Table 6a) [%] | Food intake relative to vehicle (%) 24-48 hr, 10 nmol/kg (Sprague Dawley (SD) rats; Table 6a) [%] | Ability to agonise the amylin receptor, in words [1] | Food intake relative to vehicle (%) 0-24 hr, 10 nmol/kg (Sprague Dawley (SD) rats; Table 6b) [%] | Food intake relative to vehicle (%) 24-48 hr, 10 nmol/kg (Sprague Dawley (SD) rats; Table 6b) [%] | Inhibition of food intake, in words (Sprague Dawley (SD) rats) | Ability to agonise the GLP-1 receptor, in words (human GLP-1 receptor; Tables 4a-4c)
28.1 | 11.6 |  |  |  |  |  |  | H-H[Aib]EGTFTSDVSSYLEEQAAREFIAWLVRGRK(Butyryl(4-SO2NHCO(CH2)16Tz))EASELSTAALGRLSAELHELATLPRTETGSGSP-NH2 [Compound 0103] | 80 | 80 |  |  |  |  | 
7.6 | 10.8 | 3.21 | 0.13 | 2 | 21 |  |  | H-H[Aib]EGTFTSDVSSYLEEQAAREFIAWLVRGRK([AEEA-AEEA-γGlu-Trx-C20 diacid])GGEASELSTAALGRLSAELHELATLPRTETGSGSP-NH2 [Compound 0512] |  |  |  |  |  |  | 
 |  |  |  |  |  | ≥ 10000 |  | H-H[Aib]EGTFTSDVSSYLEEQAAREFIAWLVRGRK([AEEA-AEEA-γGlu-Trx-C20 diacid])GGGGEASELSTAALGRPSAELHELATLPRTETGSGSP-NH2 [Comparator compound 0192, reference compound] |  |  | impaired their ability to agonise (activate) the amylin receptor; also recorded: impaired amylin activity | 71 | 67 | significantly less than in the case of compound 0120 | 
6.5 | 7.7 | 8.72 | 0.14 | 4 | 41 |  |  | H-H[Aib]EGTFTSDVSSYLEEQAAREFIEWLVRGRK([AEEA-AEEA-γGlu-Trx-C20 diacid])GGGGEASELSTAALGRLSAELHELATLPRTETGSGSP-NH2 [Compound 0503] |  |  |  |  |  |  | 
 |  |  |  |  |  | 10.9 | ≥ 10000 | H-H[Aib]EGTFTSDVSSYLEEQAAREIFAWLVRGRK([AEEA-AEEA-γGlu-Trx-C20 diacid])GGGGEASELSTAALGRLSAELHELATLPRTETGSGSP-NH2 [Comparator compound 0167, reference compound] |  |  | full amylin potency | 85 | 73 | significantly less than in the case of compound 0120 | impaired their ability to agonise (activate) the GLP-1 receptor; also recorded: impaired GLP-1 activity
7.4 | 9.3 | 12.77 | 0.38 | 2 | 39 |  |  | H-H[Aib]EGTFTSDVSSYLEEQAARK([AEEA-AEEA-γGlu-C20 diacid])FIAWLVRGGASELSTAALGRLSAELHELATLPRTETGSGSP-NH2 [Compound 0580] |  |  |  |  |  |  | 
13.3 | 9.4 |  |  |  |  |  |  | H-H[Aib]EGTFTSDVSSYLEGQAAK([AEEA-AEEA-γGlu-C18 diacid])EFIAWLVRGRGGGEASELSTAALGRLSAELHELATLPRTETGSGSP-NH2 [Compound 0007] | 67 | 105 |  |  |  |  | 
6.4 | 14.1 | 19.71 | 0.3 | 4 | 68 |  |  | H-H[Aib]EGTFTSDVSSYLEGQAAREFIAWLVRGRGQEPK([AEEA-AEEA-γGlu-C20 diacid])GQAPEASELSTAALGRLSAELHELATLPRTETGSGSP-NH2 [Compound 0529] |  |  |  |  |  |  | 
5 | 12.1 | 8.71 | 0.22 | 3 | 30 |  |  | H-H[Aib]EGTFTSDVSSYLEGQAAREFIAWLVRGRGQEPK([AEEA-AEEA-γGlu-Trx-C20 diacid])GQAPEASELSTAALGRLSAELHELATLPRTETGSGSP-NH2 [Compound 0539] |  |  |  |  |  |  | 
